Results from patent US8518883B2, “Method of reducing deleterious effects of ischemia by administration of a thrombopoietin receptor ligand” (MCW Research Foundation, Inc., priority 2006, dated 2013).

System: in vitro rat hearts
Assay: Isolated perfused (Langendorff) rat heart, 25 min global ischemia and 180 min reperfusion: hemodynamics, infarct size, recovery of LVDP
Details: for Effect on the cardioprotective effect of Tpo (infarct size, LVDP recovery): Glibenclamide 3 μM 15 min alone, then with Tpo 1.0 ng/ml 15 min prior to ischemia; for Effect on cardioprotection, drug alone: no Tpo
Description: The study was directed to determining whether Tpo (0.01-10.0 ng/ml) confers immediate cardioprotection in rat hearts and the contribution of potassium channels to the underlying mechanism. Hearts from normoxic 8 week old Sprague Dawley rats (n=8/group) were isolated and perfused in the Langendorff mode. Hemodynamic function was recorded under steady-state conditions prior to 25 minutes global no flow ischemia and 180 minutes reperfusion.
Isolated heart perfusion. Isolated rat hearts were perfused with bicarbonate buffer at constant pressure in a retrograde manner and instrumented as described in Baker, et al., Am. J. Physiol. Heart Circulat. Physiol. 278:1395-1400, 2000 potassium channel blockers were added to this perfusate as needed. A 3-way tap, located immediately above the site of cannulation, allowed the entire perfusate to be diverted away from the heart to produce global, no-flow ischemia. Reperfusion was achieved by repositioning of the tap to allow perfusate to be delivered to the heart. Left ventricular function was monitored continuously throughout each experiment as described in Baker, et al., supra, 2000. End-diastolic pressure was initially set to 3 mmHg for 2 minutes. The balloon was then progressively inflated with a microsyringe to set end-diastolic pressures to 8 mmHg for the left ventricle, with developed pressure and heart rate recorded during steady-state conditions. Coronary flow rate was measured throughout the experiment by timed collections of the coronary effluent from the right side of the heart into a graduated cylinder. Coronary flow rate was expressed as milliliters per minute per gram wet weight.
Resistance to myocardial ischemia. Hearts from adult rats were perfused with bicarbonate buffer, and biventricular function was monitored continuously throughout each experiment as described in Baker, et al., supra, 2000. For concentration response studies, hearts were then perfused with Tpo (0.01-10.0 ng/ml) for 15 minutes prior to 25 minutes ischemia and 180 minutes reperfusion. For mechanism studies with potassium channel blockers, hearts were perfused with drugs for 15 minutes alone followed by 15 minutes in combination with Tpo prior to ischemia. Hearts perfused with potassium channel blockers alone in the absence of Tpo for 30 minutes prior to ischemia served as untreated controls for these studies. Recovery of post-ischemic left ventricular developed pressure was expressed as a percentage of its pre-drug, pre-ischemic value.
Assessment of ventricular function. Left ventricular function was monitored continuously throughout each experiment as described in Baker, et al., supra, 2000. Recovery of left ventricular pressure following ischemia was used to assess resistance to ischemia.
Measurement of infarct size/area at risk at 3 hours reperfusion were used to assess resistance to myocardial ischemia. For characterization of infarction size, hearts were perfused with 10 ml bicarbonate buffer containing triphenyltetrazolium chloride (SIGMA) at 37° C.
The heart was sectioned in 2 mm segments from apex to atrio-ventricular groove in a transverse fashion. Each segment was recorded and placed in formalin. After twenty-four (24) hours, the specimen was digitally photographed in a camera mount to normalize specimen-to-lens distance. Each photograph was then appended to Adobe Photoshop (Adobe™) to measure pixel density of infarcted versus non-infarcted areas. The percentage of infarction of each slide was expressed as a percentage of the entire area of the heart.
Hearts from male Sprague Dawley rats at 8 weeks of age were isolated and perfused with Tpo at 0.01, 0.1, 1.0, and 10 ng/ml for 15 minutes prior to 25 minutes global ischemia and 180 minutes reperfusion (FIG. 2). Tpo (1.0 ng/ml) reduced coronary flow rate prior to ischemia from 6±1 ml/min/g to 5±1 ml/min/g, increased left ventricular developed pressure from 119±15 mmHg to 151±19 mmHg and decreased heart rate from 240±34 beats/minute to 228±17 beats/minute. […]

SMILES | Effect on the cardioprotective effect of Tpo (infarct size, LVDP recovery) | Effect on the cardioprotective effect of Tpo (infarct size, LVDP recovery) (listed as glibenclamide) | Effect on cardioprotection, drug alone (Glibenclamide 3 μM alone) | Effect on cardioprotection, drug alone (Wortmannin 100 nM alone)
COc1ccc(Cl)cc1C(=O)NCCc1ccc(S(=O)(=O)NC(=O)NC2CCCCC2)cc1 [Glibenclamide, reference compound] | completely abolished | completely prevented | no effect | –
COC[C@H]1OC(=O)c2coc3c2[C@@]1(C)C1=C(C3=O)[C@@H]2CCC(=O)[C@@]2(C)C[C@H]1OC(C)=O [Wortmannin, reference compound] | – | – | – | no effect
